Experimental data from patent US4731451A, “N-((2-oxo-3(2H)benzothiazolyl)methyl)-2-chloroacetanilides” (Monsanto Company, priority 1980, dated 1988).

Key:
Type in all cases: in vivo
Barnyardgrass [1] = test: Pre-emergent herbicidal activity (Table II); conditions: 2-3 weeks
Procedure: (§1) The pre-emergence tests are conducted as follows:
(§2) A good grade of top soil is placed in aluminum pans and compacted to a depth of three-eighths to one-half inch from the top of the pan. On the top of the soil is placed a predetermined number of seeds or vegetative propagules of various plant species. The soil required to level fill the pans after seeding or adding vegetative propagules is weighed into a pan. A known amount of the active ingredient applied in a solvent or as a wettable powder suspension and the soil are thoroughly mixed, and used as a cover layer for prepared pans. After treatment, the pans are moved into a greenhouse bench where they are watered from below as needed to give adequate moisture for germination and growth.
(§3) Approximately 2-3 weeks after seeding and treating, the plants are observed and the results recorded. The herbicidal rating is obtained by means of fixed scale based on the percent injury of each plant species. The ratings are defined as follows: […]
(§4) The plant species utilized in one set of tests, the data for which are shown in Table II, are identified by letter in accordance with the following legend: […]

Canada Thistle = test: Pre-emergent herbicidal activity (Table II); conditions: 2-3 weeks
Procedure: as §1, §2, §3, §4

Cocklebur [2] = test: Pre-emergent herbicidal activity (Table II); conditions: 2-3 weeks
Procedure: as §1, §2, §3, §4

Downy Brome [3] = test: Pre-emergent herbicidal activity (Table II); conditions: 2-3 weeks
Procedure: as §1, §2, §3, §4

Johnsongrass = test: Pre-emergent herbicidal activity (Table II); conditions: 2-3 weeks
Procedure: as §1, §2, §3, §4

Lambsquarters [4] = test: Pre-emergent herbicidal activity (Table II); conditions: 2-3 weeks
Procedure: as §1, §2, §3, §4

Morningglory [5] = test: Pre-emergent herbicidal activity (Table II); conditions: 2-3 weeks
Procedure: as §1, §2, §3, §4

Quackgrass = test: Pre-emergent herbicidal activity (Table II); conditions: 2-3 weeks
Procedure: as §1, §2, §3, §4

Smartweed [6] = test: Pre-emergent herbicidal activity (Table II); conditions: 2-3 weeks
Procedure: as §1, §2, §3, §4

Velvetleaf [7] = test: Pre-emergent herbicidal activity (Table II); conditions: 2-3 weeks
Procedure: as §1, §2, §3, §4

Yellow Nutsedge = test: Pre-emergent herbicidal activity (Table II); conditions: 2-3 weeks
Procedure: as §1, §2, §3, §4

Barnyardgrass [8] = test: Pre-emergent herbicidal activity (Table III)
Procedure: as §1, §2, §3
(§5) The compounds were further tested by utilizing the above procedure on the following plant species: […]

Cocklebur [9] = test: Pre-emergent herbicidal activity (Table III)
Procedure: as §1, §2, §3, §5

Crabgrass = test: Pre-emergent herbicidal activity (Table III)
Procedure: as §1, §2, §3, §5

Downy Brome [10] = test: Pre-emergent herbicidal activity (Table III)
Procedure: as §1, §2, §3, §5

Hemp Sesbania = test: Pre-emergent herbicidal activity (Table III)
Procedure: as §1, §2, §3, §5

Lambsquarters [11] = test: Pre-emergent herbicidal activity (Table III)
Procedure: as §1, §2, §3, §5

Morningglory [12] = test: Pre-emergent herbicidal activity (Table III)
Procedure: as §1, §2, §3, §5

Panicum = test: Pre-emergent herbicidal activity (Table III)
Procedure: as §1, §2, §3, §5

Rice = test: Pre-emergent herbicidal activity (Table III)
Procedure: as §1, §2, §3, §5

Smartweed [13] = test: Pre-emergent herbicidal activity (Table III)
Procedure: as §1, §2, §3, §5

Sorghum = test: Pre-emergent herbicidal activity (Table III)
Procedure: as §1, §2, §3, §5

Soybean = test: Pre-emergent herbicidal activity (Table III)
Procedure: as §1, §2, §3, §5

Sugarbeet = test: Pre-emergent herbicidal activity (Table III)
Procedure: as §1, §2, §3, §5

Velvetleaf [14] = test: Pre-emergent herbicidal activity (Table III)
Procedure: as §1, §2, §3, §5

Wheat = test: Pre-emergent herbicidal activity (Table III)
Procedure: as §1, §2, §3, §5

Wild Buckwheat = test: Pre-emergent herbicidal activity (Table III)
Procedure: as §1, §2, §3, §5
Also: ranges in brackets are in %.

For `CCc1cccc(CC)c1N(Cn1c(=O)sc2ccccc21)C(=O)CCl` [Example 3, N--[(2-oxo-3(2H)--benzothiazolyl)methyl]-2'-6'-diethyl-2-chloroacetanilide], the Herbicidal rating (Barnyardgrass [1]; 5.6 kg/ha) was 3 (75-100), the Herbicidal rating (Barnyardgrass [1]; 11.2 kg/ha) was 3 (75-100) and the Herbicidal rating (Canada Thistle; 5.6 kg/ha) was 0 (0-24). For the same compound, the Herbicidal rating (Canada Thistle; 11.2 kg/ha) was 0 (0-24), the Herbicidal rating (Cocklebur [2]; 5.6 kg/ha) was 0 (0-24) and the Herbicidal rating (Cocklebur [2]; 11.2 kg/ha) was 0 (0-24). The Herbicidal rating (Downy Brome [3]; 5.6 kg/ha) was 1 (25-49), the Herbicidal rating (Downy Brome [3]; 11.2 kg/ha) was 1 (25-49) and the Herbicidal rating (Johnsongrass; 5.6 kg/ha) was 0 (0-24). The Herbicidal rating (Johnsongrass; 11.2 kg/ha) was 0 (0-24), the Herbicidal rating (Lambsquarters [4]; 5.6 kg/ha) was 0 (0-24) and the Herbicidal rating (Lambsquarters [4]; 11.2 kg/ha) was 0 (0-24). The Herbicidal rating (Morningglory [5]; 5.6 kg/ha) was 0 (0-24), the Herbicidal rating (Morningglory [5]; 11.2 kg/ha) was 0 (0-24) and the Herbicidal rating (Quackgrass; 5.6 kg/ha) was 0 (0-24). For the same compound, the Herbicidal rating (Quackgrass; 11.2 kg/ha) was 1 (25-49), the Herbicidal rating (Smartweed [6]; 5.6 kg/ha) was 0 (0-24) and the Herbicidal rating (Smartweed [6]; 11.2 kg/ha) was 0 (0-24). The Herbicidal rating (Velvetleaf [7]; 5.6 kg/ha) was 0 (0-24), the Herbicidal rating (Velvetleaf [7]; 11.2 kg/ha) was 0 (0-24) and the Herbicidal rating (Yellow Nutsedge; 5.6 kg/ha) was 1 (25-49). The Herbicidal rating (Yellow Nutsedge; 11.2 kg/ha) was 1 (25-49), the Herbicidal rating (Barnyardgrass [8]; 0.28 kg/ha) was 3 (75-100) and the Herbicidal rating (Barnyardgrass [8]; 1.12 kg/ha) was 3 (75-100). For the same compound, the Herbicidal rating (Barnyardgrass [8]; 5.6 kg/ha) was 3 (75-100), the Herbicidal rating (Cocklebur [9]; 0.28 kg/ha) was 0 (0-24) and the Herbicidal rating (Cocklebur [9]; 1.12 kg/ha) was 0 (0-24). For the same compound, the Herbicidal rating (Cocklebur [9]; 5.6 kg/ha) was 0 (0-24), the Herbicidal rating (Crabgrass; 0.28 kg/ha) was 1 (25-49) and the Herbicidal rating (Crabgrass; 1.12 kg/ha) was 2 (50-74). The Herbicidal rating (Crabgrass; 5.6 kg/ha) was 3 (75-100), the Herbicidal rating (Downy Brome [10]; 0.28 kg/ha) was 0 (0-24) and the Herbicidal rating (Downy Brome [10]; 1.12 kg/ha) was 1 (25-49). For the same compound, the Herbicidal rating (Downy Brome [10]; 5.6 kg/ha) was 2 (50-74), the Herbicidal rating (Hemp Sesbania; 0.28 kg/ha) was 0 (0-24) and the Herbicidal rating (Hemp Sesbania; 1.12 kg/ha) was 0 (0-24). The Herbicidal rating (Hemp Sesbania; 5.6 kg/ha) was 0 (0-24), the Herbicidal rating (Lambsquarters [11]; 0.28 kg/ha) was 0 (0-24) and the Herbicidal rating (Lambsquarters [11]; 1.12 kg/ha) was 0 (0-24). The Herbicidal rating (Lambsquarters [11]; 5.6 kg/ha) was 0 (0-24), the Herbicidal rating (Morningglory [12]; 0.28 kg/ha) was 0 (0-24) and the Herbicidal rating (Morningglory [12]; 1.12 kg/ha) was 0 (0-24). For the same compound, the Herbicidal rating (Morningglory [12]; 5.6 kg/ha) was 0 (0-24), the Herbicidal rating (Panicum; 0.28 kg/ha) was 0 (0-24) and the Herbicidal rating (Panicum; 1.12 kg/ha) was 1 (25-49). The Herbicidal rating (Panicum; 5.6 kg/ha) was 3 (75-100), the Herbicidal rating (Rice; 0.28 kg/ha) was 1 (25-49) and the Herbicidal rating (Rice; 1.12 kg/ha) was 0 (0-24). The Herbicidal rating (Rice; 5.6 kg/ha) was 0 (0-24), the Herbicidal rating (Smartweed [13]; 0.28 kg/ha) was 0 (0-24) and the Herbicidal rating (Smartweed [13]; 1.12 kg/ha) was 1 (25-49). The Herbicidal rating (Smartweed [13]; 5.6 kg/ha) was 0 (0-24), the Herbicidal rating (Sorghum; 0.28 kg/ha) was 0 (0-24) and the Herbicidal rating (Sorghum; 1.12 kg/ha) was 0 (0-24). The Herbicidal rating (Sorghum; 5.6 kg/ha) was 0 (0-24), the Herbicidal rating (Soybean; 0.28 kg/ha) was 0 (0-24) and the Herbicidal rating (Soybean; 1.12 kg/ha) was 0 (0-24). For the same compound, the Herbicidal rating (Soybean; 5.6 kg/ha) was 0 (0-24), the Herbicidal rating (Sugarbeet; 0.28 kg/ha) was 0 (0-24) and the Herbicidal rating (Sugarbeet; 1.12 kg/ha) was 0 (0-24). The Herbicidal rating (Sugarbeet; 5.6 kg/ha) was 0 (0-24), the Herbicidal rating (Velvetleaf [14]; 0.28 kg/ha) was 0 (0-24) and the Herbicidal rating (Velvetleaf [14]; 1.12 kg/ha) was 0 (0-24). For the same compound, the Herbicidal rating (Velvetleaf [14]; 5.6 kg/ha) was 0 (0-24), the Herbicidal rating (Wheat; 0.28 kg/ha) was 0 (0-24) and the Herbicidal rating (Wheat; 1.12 kg/ha) was 0 (0-24). For the same compound, the Herbicidal rating (Wheat; 5.6 kg/ha) was 0 (0-24), the Herbicidal rating (Wild Buckwheat; 0.28 kg/ha) was 0 (0-24) and the Herbicidal rating (Wild Buckwheat; 1.12 kg/ha) was 0 (0-24). The Herbicidal rating (Wild Buckwheat; 5.6 kg/ha) was 0 (0-24).
